Measurements from US9296698B2, “Amino heteroaryl compounds as beta-secretase modulators and methods of use” (Amgen Inc., priority 2009, dated 2016).
Read-outs that look alike come from different tables or passages of the source.

What was measured:
[1] = target: BACE 1 (Beta Secretase enzyme) (Homo sapiens, UniProt P56817); assay: In vitro enzymatic BACE FRET assay; type: biochemical
Experimental: In Vitro Enzymatic BACE FRET (Fluorescence Resonance Energy Transfer) Assay (Enzyme Assay Data in Table 1)
The assay buffer used in this screen is 0.05 M acetate, pH 4.2, 10% DMSO final, 100 uM genapol (which is a nonionic detergent, below its Critical Micelle Concentration). […] The assay is effectively started by the addition of FRET substrate (50 nM) and the combination is incubated for one hour. The FRET assay is terminated with by addition of Tris buffer, which raises the pH to neutrality, and the fluorescence is determined. The FRET substrate is a peptide with commercially available fluorophore and quencher, on opposite sides of the BACE cleavage site.

[2] = tested on: Aβ40 in conditioned medium of cells stably expressing Amyloid Precursor Protein (APP); assay: In vitro BACE cell-based assay (HEK cell assay), Aβ40 sandwich ELISA; conditions: IC50 range symbols, Table 1, Aβ40, 24 h incubation, read-out: HEK cell assay
Experimental: In Vitro BACE Cell-Based Assay:
The cell-based assay measures inhibition or reduction of Aβ40 in conditioned medium of test compound treated cells expressing amyloid precursor protein.
Cells stably expressing Amyloid Precursor Protein (APP) were plated at a density of 40K cells/well in 96 well plates (Costar). The cells were cultivated for 24 hours at 37° C. and 5% CO2 in DMEM supplemented with 10% FBS. The test compounds were then added to cells in 10-point dose response concentrations with the starting concentration being either 100 μM or 10 μM. The compounds were diluted from stock solutions in DMSO and the final DMSO concentration of the test compounds on cells was 0.1%. After 24 h of incubation with the test compounds the supernatant conditioned media was collected and the Aβ 40 levels were determined using a sandwich ELISA. The IC50 of the compound was calculated from the percent of control or percent inhibition of Aβ 40 as a function of the concentration of the test compound.
The sandwich ELISA to detect Aβ 40 was performed in 96 well microtiter plates, which were pre-treated with goat anti-rabbit IgG (Pierce). The capture and detecting antibody pair that were used to detect Aβ 40 from cell supernatants were affinity purified pAb40 (Biosource) and biotinylated 6E10 (Signet Labs Inc.), respectively. The optimal concentration for the pAb40 antibody was 3 μg/ml in Superblock/TBS (Pierce) that was supplemented with 0.05% Tween 20 (Sigma).
Cellular supernatants were incubated with the capture antibody for 3 h at 4° C., followed by 3 wash steps in TBS-tween (0.05%). The detecting antibody incubation was for 2 h at 4° C., again followed by the wash steps as described previously. The final readout of the ELISA is Time-Resolved Fluorescence (counts per minute) using Delfia reagents Streptavidin-Europium and Enhancement solutions (Perkin Elmer) and the Victor 2 multilabel counter (Perkin Elmer).

[3] = IC50 range symbols, Table 1, read-out: BACE 1 FRET assay

Sequence of BACE 1 (Beta Secretase enzyme) (P56817 46-501, species assumed): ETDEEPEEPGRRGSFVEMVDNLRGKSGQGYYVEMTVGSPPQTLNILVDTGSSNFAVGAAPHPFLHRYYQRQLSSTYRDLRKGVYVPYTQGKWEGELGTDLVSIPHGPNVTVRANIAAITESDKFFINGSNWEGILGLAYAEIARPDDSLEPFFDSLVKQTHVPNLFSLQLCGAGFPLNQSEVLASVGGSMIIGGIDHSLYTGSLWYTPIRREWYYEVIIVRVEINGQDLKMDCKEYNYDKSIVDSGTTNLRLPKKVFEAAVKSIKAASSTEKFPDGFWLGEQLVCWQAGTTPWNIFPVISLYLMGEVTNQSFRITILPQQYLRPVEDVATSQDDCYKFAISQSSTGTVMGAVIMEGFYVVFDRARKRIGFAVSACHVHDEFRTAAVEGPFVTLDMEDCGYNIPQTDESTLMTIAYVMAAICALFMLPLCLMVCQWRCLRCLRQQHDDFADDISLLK

Compound	IC50 [1, 3] [nM]	IC50 ([2]; Homo sapiens, HEK293, 24 h) [nM]	IC50 ([1]; bound stated, read-out: IC50 value in the FRET BACE enzyme assay) [nM]	IC50 [2] [nM]
Cc1ccccc1-c1ccc2nc(N)c(CCC(=O)NCC3CCOCC3)cc2c1 [Example 19, 3-(2-amino-6-o-tolylquinolin-3-yl)-N-((tetrahydro-2H-pyran-4-yl)methyl)propanamide]	< 500	1000 to 5000		
Cc1ccccc1-c1ccc2nc(N)c(CCC(=O)NCCC3CCCCC3)cc2c1 [Example 24, 3-(2-amino-6-o-tolylquinolin-3-yl)-N-(2-cyclohexylethyl)propanamide]	< 500	< 500		
C#CC1CC(NC(=O)[C@H](C)Cc2cc3cc(-c4ccccc4C)ccc3nc2N)CCO1 (stereo partly drawn) [Example 160, (R)-3-(2-amino-6-o-tolylquinolin-3-yl)-N-(cis-2-ethynyltetrahydro-2H-pyran-4-yl)-2-methylpropanamide]	< 500	< 500		
Cc1cccnc1-c1ccc2nc(N)c(CC(C)C(=O)NC[C@H]3CCCOC3)cc2c1 (stereo partly drawn) [Example 86, 3-(2-amino-6-(3-methylpyridin-2-yl)quinolin-3-yl)-2-methyl-N-(((R)-tetrahydro-2H-pyran-3-yl)methyl)propanamide]	< 500	< 500		
CC(Cc1cc2cc(-c3ncccc3CCN3CCN(C)CC3)ccc2nc1N)C(=O)NCCC(C)(C)C (stereo not shown) [Example 124, 3-(2-amino-6-(3-(2-(4-methylpiperazin-1-yl)ethyl)pyridin-2-yl)quinolin-3-yl)-N-(3,3-dimethylbutyl)-2-methylpropanamide]	500 to 1000	< 500		
Cc1cccnc1-c1ccc2nc(N)c(C[C@@H](C)C(=O)NCCC(C)(C)C)cc2c1 [Example 126, (R)-3-(2-amino-6-(3-methylpyridin-2-yl)quinolin-3-yl)-N-(3,3-dimethylbutyl)-2-methylpropanamide]		< 500		
Cc1ccccc1-c1ccc2nc(N)c(CC(C)C(=O)NCc3cnn(C)c3)cc2c1 (stereo not shown) [Example 94, 3-(2-amino-6-o-tolylquinolin-3-yl)-2-methyl-N-((1-methyl-1H-pyrazol-4-yl)methyl)propanamide]	< 500	1000 to 5000		
CNC(=O)C(C)Cc1cc2cc(-c3c(C)cccc3C(=O)N3CCCC3)ccc2nc1N (stereo not shown) [Example 148, 3-(2-Amino-6-(2-methyl-6-(pyrrolidine-1-carbonyl)phenyl)quinolin-3-yl)-N, 2-dimethylpropanamide]	< 500	< 500		
Cc1ccccc1-c1ccc2nc(N)c(CCC(=O)Nc3ccccc3)cc2c1 [Example 25, 3-(2-amino-6-o-tolylquinolin-3-yl)-N-phenylpropanamide]	< 500	500 to 1000		
CC(=O)c1ccccc1-c1ccc2nc(N)c(CC(C)C(=O)NC3CCOC(C)(C)C3)cc2c1 (stereo not shown) [Example 143, 3-(6-(2-acetylphenyl)-2-amino-3-quinolinyl)-N-(2,2-dimethyltetrahydro-2H-pyran-4-yl)-2-methylpropanamide]	< 500	< 500		
CCCCOc1ccccc1-c1ccc2nc(N)c(CC(C)C(=O)NCC3CCCCC3)cc2c1 (stereo not shown) [Example 103, 3-(2-amino-6-(2-butoxyphenyl)quinolin-3-yl)-N-(cyclohexylmethyl)-2-methylpropanamide]	< 500	< 500	< 50	
CCc1ccccc1-c1ccc2nc(N)c(CCC(=O)NCC3CCCCC3)cc2c1 [Example 49, 3-(2-amino-6-(2-ethylphenyl)quinolin-3-yl)-N-(cyclohexylmethyl)propanamide]	< 500	1000 to 5000		
Cc1ccncc1-c1ccc2nc(N)c(CCC(=O)NCC3CCCCC3)cc2c1 [Example 46, 3-(2-amino-6-(4-methylpyridin-3-yl)quinolin-3-yl)-N-(cyclohexylmethyl)propanamide]	1000 to 5000	> 5000		
Cc1ccccc1-c1ccc2nc(N)c(C[C@@H](C)C(=O)NC3CCOC(C)(C)C3)cc2c1 (stereo partly drawn) [Example 164, (2R)-3-(2-amino-6-o-tolylquinolin-3-yl)-N-(2,2-dimethyltetrahydro-2H-pyran-4-yl)-2-methylpropanamide]		< 500		
Cc1ccccc1-c1ccc2nc(N)c(CCC(=O)NCC3(C)COC3)cc2c1 [Example 58, 3-(2-amino-6-o-tolylquinolin-3-yl)-N-((3-methyloxetan-3-yl)methyl)propanamide]	1000 to 5000	> 5000		
N#Cc1ccccc1-c1ccc2nc(N)c(CCC(=O)NCC3CCCCC3)cc2c1 [Example 41, 3-(2-amino-6-(2-cyanophenyl)quinolin-3-yl)-N-(cyclohexylmethyl)propanamide]	< 500	1000 to 5000		

Compound	IC50 [1, 3] [nM]	IC50 ([2]; Homo sapiens, HEK293, 24 h) [nM]	IC50 ([1]; bound stated, read-out: IC50 value in the FRET BACE enzyme assay) [nM]	IC50 [2] [nM]
3-(6-(3-chloropyridin-2-yl)quinolin-3-yl)-N-((4,4-difluorocyclohexyl)methyl)-2-methylpropanamide [Example 99]	< 500			1000 to 5000
3-(3-amino-7-o-tolylnaphthalen-2-yl)-N-(1-(pyridin-2-yl)ethyl)propanamide [Example 56]	< 500			1000 to 5000
Cc1ccccc1-c1ccc2nc(N)c(CCC(=O)N(C)C3CCCCC3)cc2c1 [Example 1, 3-(2-amino-6-o-tolylquinolin-3-yl)-N-cyclohexyl-N-methylpropanamide]		< 500		
Cc1ccccc1-c1ccc2nc(N)c(CC(C)C(=O)NCCC(C)(C)C)cc2c1 (stereo not shown) [Example 90, 3-(2-amino-6-o-tolylquinolin-3-yl)-N-(3,3-dimethylbutyl)-2-methylpropanamide]		< 500		
Cc1ccccc1-c1ccc2nc(N)c(CC(C)C(=O)NCC3CCCCC3)cc2c1 (stereo not shown) [Example 22, 3-(2-amino-6-o-tolylquinolin-3-yl)-N-(cyclohexylmethyl)-2-methylpropanamide]		< 500		
CCC(Cc1cc2cc(-c3ccccc3C)ccc2nc1N)C(=O)NCC1CCCCC1 (stereo not shown) [Example 60, 2-((2-amino-6-o-tolylquinolin-3-yl)methyl)-N-(cyclohexylmethyl)butanamide]		> 5000		
Cc1ccccc1-c1ccc2nc(N)c(CC(C)C(=O)NCc3ccccc3)cc2c1 (stereo not shown) [Example 52, 3-(2-amino-6-o-tolylquinolin-3-yl)-N-benzyl-2-methylpropanamide]		1000 to 5000		
C[C@H](Cc1cc2cc(-c3ncccc3Cl)ccc2nc1N)C(=O)NCCC(C)(C)C [Example 128, (R)-3-(2-amino-6-(3-chloropyridin-2-yl)quinolin-3-yl)-N-(3,3-dimethylbutyl)-2-methylpropanamide]		< 500		
Cc1ccccc1-c1ccc2nc(N)c(CC(C)C(=O)NCc3cncs3)cc2c1 (stereo not shown) [Example 93, 3-(2-amino-6-o-tolylquinolin-3-yl)-2-methyl-N-(thiazol-5-ylmethyl)propanamide]		< 500		
Cc1ccccc1-c1ccc2nc(N)c(CCC(=O)NCC3CCCCC3)cc2c1 [Example 14, 3-(2-amino-6-o-tolylquinolin-3-yl)-N-(cyclohexylmethyl)propanamide]		500 to 1000		
Cc1ccccc1-c1ccc2nc(N)c(CCC(=O)NC3CCCCC3)cc2c1 [Example 13, 3-(2-amino-6-o-tolylquinolin-3-yl)-N-cyclohexylpropanamide]		500 to 1000		
CC(=O)c1ccccc1-c1ccc2nc(N)c(CC(C)C(=O)NCCC(C)(C)C)cc2c1 (stereo not shown) [Example 156, 3-(6-(2-acetylphenyl)-2-aminoquinolin-3-yl)-N-(3,3-dimethylbutyl)-2-methylpropanamide]		< 500		
Cc1ccccc1-c1ccc2nc(N)c(CC(C(=O)NCC3CCCCC3)C(C)C)cc2c1 (stereo not shown) [Example 66, 2-((2-amino-6-o-tolylquinolin-3-yl)methyl)-N-(cyclohexylmethyl)-3-methylbutanamide]		1000 to 5000		
Cc1cccnc1-c1ccc2nc(N)c(CC(C)C(=O)NCCC(C)(C)C)cc2c1 (stereo not shown) [Example 5, 3-(2-amino-6-(3-methylpyridin-2-yl)quinolin-3-yl)-N-(3,3-dimethylbutyl)-2-methylpropanamide]		500 to 1000		
Cc1ccccc1-c1ccc2nc(N)c(C[C@@H](C)C(=O)NCc3cnccn3)cc2c1 [Example 80, (R)-3-(2-amino-6-o-tolylquinolin-3-yl)-2-methyl-N-(pyrazin-2-ylmethyl)propanamide]		< 500		
Cc1ccccc1-c1ccc2nc(N)c(C[C@@H](C)C(=O)NCC3CCOCC3)cc2c1 [Example 87, (R)-3-(2-amino-6-o-tolylquinolin-3-yl)-2-methyl-N-((tetrahydro-2H-pyran-4-yl)methyl)propanamide]		< 500		
